This is an account of results in patent publication US7897582B2, “Oligonucleotide compositions and methods for the modulation of the expression of B7 protein” (Isis Pharmaceuticals, Inc., priority 2003, dated 2011).

For data set [1] the following is noted: mouse, in vivo. Here is the method: Antisense oligonucleotides (ASOs) were dissolved in saline and used to intratracheally dose mice every day, four times per day, from days 15-26 of the OVA sensitization and challenge protocol. Specifically, the mice were anesthetized with isofluorane and placed on a board with the front teeth hung from a line. The nose was covered and the animal's tongue was extended with forceps and […] of various doses of ASO, or an equivalent volume of saline (control) was placed at the back of the tongue until inhaled into the lung.

The next data set concerns B7-2. As to the kind of experiment: B7-2 expression in antigen presenting cells (blood monocytes with IL-4 and GM-CSF), flow cytometry. Conditions: FIG. 6. In kind it is cell-based, human. Here is the method:
The ability of ISIS 10373 to inhibit expression from the native B7-2 gene in antigen presenting cells (APCs) was evaluated as follows.
Monocytes were cultured and treated with oligonucleotides as follows. For dendritic cells, EDTA-treated blood was layered onto Polymorphprep™ (1.113 g/mL; Nycomed, Oslo, Norway) and sedimented at 500×g for 30 minutes at 20° C. Mononuclear cells were harvested from the interface. Cells were washed with PBS, with serum-free RPMI media (Moore et al., N.Y. J. Med., 1968, 68, 2054) and then with RPMI containing 5% fetal bovine serum (FBS). Monocytes were selected by adherence to plastic cell culture cell culture dishes for 1 h at 37° C. After adherence, cells were treated with oligonucleotides in serum-free RPMI containing Lipofectin™ (8 μg/mL). After 4 hours, the cells were washed. […] Cells were incubated for 48 hours, after which cell surface expression of various molecules was measured by flow cytometry.
(§1) Mononuclear cells isolated from fresh blood were treated with oligonucleotide in the presence of cationic lipid to promote cellular uptake. […] Expression of B7-2 protein was measured by flow cytometry according to the methods of Example 2. […]
A general note: A flow cytometer gives signals particle by particle.

In the next data set the test system is ICAM-1. As to the kind of experiment: ICAM-1 expression in antigen presenting cells, flow cytometry. In kind it is cell-based, human. The protocol: (§2) Monocytes were cultured and treated with oligonucleotides as follows. For dendritic cells, EDTA-treated blood was layered onto Polymorphprep™ (1.113 g/mL; Nycomed, Oslo, Norway) and sedimented at 500×g for 30 minutes at 20° C. Mononuclear cells were harvested from the interface. Cells were washed with PBS, with serum-free RPMI media (Moore et al., N.Y. J. Med., 1968, 68, 2054) and then with RPMI containing 5% fetal bovine serum (FBS). Monocytes were selected by adherence to plastic cell culture cell culture dishes for 1 h at 37° C. After adherence, cells were treated with oligonucleotides in serum-free RPMI containing Lipofectin™ (8 μg/mL). After 4 hours, the cells were washed. Then RPMI containing 5% FBS and oligonucleotide was added to cells along with interleukin-4 (IL-4; R&D Systems, Minneapolis, Minn.) (66 ng/mL) and granulocyte-macrophage colony-stimulating factor (GM-CSF; R&D Systems, Minneapolis, Minn.) (66 ng/mL) to stimulate differentiation (Romani et al., J. Exp. Med., 1994, 180, 83, 1994). Cells were incubated for 48 hours, after which cell surface expression of various molecules was measured by flow cytometry.
as §1

Another data set deals with CD4+ T cells. As to the kind of experiment: T cell proliferation assay, [3H]thymidine incorporation, oligonucleotide-treated APCs plus CD4+ T cells. In kind it is cell-based, human. Conditions: APCs treated before cytokine induction; FIG. 7. The protocol: The ability of ISIS 2302 and ISIS 10373 to inhibit T cell proliferation was evaluated as follows. Monocytes treated with oligonucleotide and cytokines (as in Example 6) were used as antigen presenting cells in a T cell proliferation assay. The differentiated monocytes were combined with CD4+ T cells from a separate donor. After 48 hours, proliferation was measured by [^3H]thymidine incorporation.
For T cell proliferation assays, cells were isolated from EDTA-treated whole blood as described above, except that a faster migrating band containing the lymphocytes was harvested from just below the interface. Cells were washed as described in Example 6 after which erythrocytes were removed by NH4Cl lysis. T cells were purified using a T cell enrichment column (R&D Systems, Minneapolis, Minn.) essentially according to the manufacturer's directions. CD4+ T cells were further enriched from the entire T cell population by depletion of CD8+ cells with anti-CD8-conjugated magnetic beads (AMAC, Inc., Westbrook, Me.) according to the manufacturer's directions. T cells were determined to be >80% CD4+ by flow cytometry using Cy-chrome-conjugated anti-CD4 mAb (PharMingen, San Diego, Calif.).
Antigen presenting cells (APCs) were isolated as described in Example 6 and treated with mitomycin C (25 μg/mL) for 1 hour then washed 3 times with PBS. APCs (10^5 cells) were then combined with 4×10^4 CD4+ T cells in 350 μL of culture media. Where indicated, purified CD3 mAb was also added at a concentration of 1 μg/mL. During the last 6 hours of the 48 hour incubation period, proliferation was measured by determining uptake of 1.5 μCi of [^3H]-thymidine per well. The cells were harvested onto filters and the radioactivity measured by scintillation counting.
(Uptake of a labelled nucleoside into DNA is a usual measure of proliferation.)

For another data set, the system named is human B7-1. Briefly: Cell surface expression of B7-1 in pcB7-1-transfected COS-7 cells by flow cytometry. The data set is classed as cell-based. Conditions: FIG. 5. The protocol:
The ability of oligonucleotides to inhibit B7-1 expression was evaluated by measuring the cell surface expression of B7-1 in transfected COS-7 cells by flow cytometry.
A T-175 flask was seeded at 75% confluency with COS-7 cells (ATCC accession No. CRL 1651). The plasmid pcB7-1 was introduced into cells by standard calcium phosphate transfection. Following a 4 hour transfection, the cells were trypsinized and seeded in 12-well dishes at 80% confluency. The cells were allowed to adhere to the plastic for 1 hour and were then washed with phosphate-buffered saline (PBS). OptiMEM™ (GIBCO-BRL, Gaithersburg, Md.) medium was added along with 15 μg/mL of Lipofectin™ (GIBCO-BRL, Gaithersburg, Md.) and oligonucleotide at the indicated concentrations. After four additional hours, the cells were washed with phosphate buffered saline (PBS) and incubated with fresh oligonucleotide at the same concentration in DMEM (Dulbecco et al., Virol., 1959, 8, 396; Smith et al., Virol., 1960, 12, 185) with 10% fetal calf sera (FCS).
In order to monitor the effects of oligonucleotides on cell surface expression of B7-1, treated COS-7 cells were harvested by brief trypsinization 24-48 hours after oligonucleotide treatment. The cells were washed with PBS, then resuspended in 100 μL of staining buffer (PBS, 0.2% BSA, 0.1% azide) with 5 μL conjugated anti-B7-1-antibody (i.e., anti-hCD80-FITC, Ancell, Bayport, Minn.; FITC: fluorescein isothiocyanate). The cells were stained for 30 minutes at 4° C., washed with PBS, resuspended in 300 μL containing 0.5% paraformaldehyde. Cells were harvested and the fluorescence profiles were determined using a flow cytometer.
B7 antisense oligonucleotides were tested for their effect on cell surface expression of both B7-1 and B7-2. Cell surface expression was measured as described in Example 1. Experiments were done for both human B7 and mouse B7.
The oligonucleotides were screened as described in Example 2 except that the concentration of oligonucleotide was varied as shown in Table 18.

A further data set deals with human B7-2. As to the kind of experiment: Cell surface expression of B7-2 in transfected COS-7 cells by flow cytometry. The data set is classed as cell-based. The procedure, abridged:
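COS-7 cells transfected with B7-2 plasmid (calcium phosphate), then treated with antisense oligonucleotides with 15 μg/mL Lipofectin for 4 h, followed by oligonucleotide in DMEM/10% FCS. After 24-48 h, cells stained with FITC- or PE-conjugated anti-CD86 for 30 min at 4 °C and analysed by flow cytometry.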

The test system of the next data set is B7-1. Briefly: B7-1 cell surface expression in antigen presenting cells, flow cytometry. The data set is classed as cell-based, human. Here is the method:
as §2, §1

For the next data set, the system named is HLA-DR. As to the kind of experiment: HLA-DR cell surface expression in antigen presenting cells, flow cytometry. The data set is classed as cell-based, human. The protocol: as §2, §1
The next data set deals with CD3. Briefly: CD3 cell surface expression in antigen presenting cells, flow cytometry. In kind it is cell-based, human. The protocol:
as §2, §1

Strand notation (5' to 3'): a small letter for the sugar, then the base; units joined by * are phosphorothioate-linked, units joined directly phosphodiester-linked; [ ] holds rarer units or linkages, { } end groups; capitals alone tell only the bases. d = 2'-deoxy (DNA)

Consider 5′-TCCGTCATCGCTCCTCAGGG-3′ [ISIS 13920], for which the “deposition pattern in the lung” value in data set [1] is “taken up throughout the lung, most strongly by antigen presenting cells (APCs) and alveolar epithelium”.
Turning to “ISIS 2302: antisense oligonucleotide targeted to ICAM-1, an inhibitor of ICAM-1 expression; SEQ ID NO: 17 (antisense GCCCAAGCTGGCATCCGTCA; listed as DNA, chemistry not given here) [reference compound]”, the “effect on B7-2 expression” value in the data set with B7-2 was “no effect”. For the same substance, in the data set on ICAM-1 (antigen presenting cells, FIG. 6, read-out: IC50, ICAM-1 levels), the IC50 (commonly the concentration at which inhibition is half-maximal) was approximately 250 nM. Besides, the “T cell proliferative response” value with CD4+ T cells is “blocked”.
With “ISIS 10373: phosphorothioate 20-mer to human B7-2 mRNA 0011-0030; 5′-UTR; SEQ ID NO: 16 (antisense dT*dG*dC*dG*dA*dG*dC*dT*dC*dC*dC*dC*dG*dT*dA*dC*dC*dT*dC*dC)”, the “effect on B7-1 expression (specificity)” value in the data set with human B7-1 is reported as “little or no effect”. Moreover, the “effect on B7-2 expression (specificity)” value in the data set on human B7-2 (FIG. 5) is “inhibits B7-2 expression”. Also, in the data set with B7-2, the half-inhibitory concentration (IC50) is approximately 250 nM. The “effect on ICAM-1 expression” value in the data set on ICAM-1 (dose of 1 μM) is given as “only a slight effect”. Moreover, the “cell surface expression of B7-1” value in the data set on B7-1 is listed as “did not affect”. In the data set on HLA-DR, the “cell surface expression of HLA-DR” value was “did not affect”. The “cell surface expression of CD3” value in the data set with CD3 is on record as “did not affect”. Besides, the “T cell proliferative response” value in the data set on CD4+ T cells is “blocked”.
Take “ISIS 10721: scrambled # 10373; SEQ ID NO: 82 (antisense dC*dG*dA*dC*dA*dG*dC*dT*dC*dC*dT*dG*dC*dG*dC*dT*dC*dC*dT*dC) [reference compound]”: the “inhibitory activity on B7-2 cell surface expression” value in the data set on human B7-2 (200 nM, FIG. 3) was “no inhibitory activity”. Further, the “T cell proliferative response” value with CD4+ T cells was “insignificant effect”.
